A short description of test [1]: Ratio of IC50(presence of NaCl) to that of IC50(absence of NaCl).
For test [2], the species on record is Mus musculus. The test is described as follows: Compound was tested for irreversible inhibition of [3H]- Naltrexone binding with 10 nM naloxone+5 nM protection in the presence of NaCl (washed). It is filed as functional. The arrangement: scale not given: the % may be the effect or the level left.
Test [3] is filed under the species Mus musculus. The test is described as follows: Compound was tested for irreversible inhibition of [3H]- Naltrexone binding with 10 nM naloxone+ 5 nM protection in the presence of NaCl (unwashed). In kind it is functional. More on the design: scale not given: the % may be the effect or the level left.
For test [4], the species on record is Mus musculus. The test is described as follows: Compound was tested for irreversible inhibition of [3H]- Naltrexone binding with 10 nM naloxone+ 5 nM protection in the presence of NaCl (washed). The arrangement: scale not given: the % may be the effect or the level left. In kind it is functional.

The structures appear in SMILES notation. “And” between values parts separate entries of the source, which are not always exact repeats. Identical values can stand only once.

As to `C=C1CC2(CCC3(O)[C@H]4Cc5ccc(O)c6c5[C@@]3(CCN4CC3CC3)C2O6)OC1=O` (stereo in doubt; 4a), the Ratio in test [1] stood at 0.8.

In the case of `C=C1CC2(CCC3(O)[C@H]4Cc5ccc(O)c6c5[C@@]3(CCN4C)C2O6)OC1=O` (stereo in doubt; 4b), in test [1], the Ratio worked out at 7.6.

With `C=C1CC2(CCC3(O)[C@H]4Cc5ccc(O)c6c5[C@@]3(CCN4CC3CC3)C2O6)OC1=O` (stereo in doubt; 5a) [listing 1 of 2 here], the Control is 80% in the test listed under Mus musculus [2]; 28% and 13% in the test listed under Mus musculus [3]; 93% in the test listed under Mus musculus [4].

`C=C1CC2(CCC3(O)[C@H]4Cc5ccc(O)c6c5[C@@]3(CCN4CC3CC3)C2O6)OC1=O` (stereo in doubt; 5a) [listing 2 of 2 here]: the Ratio in test [1] was determined as 0.4.

Regarding `C=C1CC2(CCC3(O)[C@H]4Cc5ccc(O)c6c5[C@@]3(CCN4C)C2O6)OC1=O` (stereo in doubt; 5b), the Ratio in test [1] turned out to be 7.1.

Values taken from ChEMBL document CHEMBL1122547, “Diastereomeric 6-desoxy-6-spiro-alpha-methylene-gamma-butyrolactone derivatives of naltrexone and oxymorphone. Selective irreversible inhibition of naltrexone binding in an opioid receptor preparation by a conformationally restricted michael acceptor ligand” (J Med Chem, 1984).
